pIC50: −log10 of the molar value.
Key:
Assay type in all cases: biochemical
[1] = target: LCK (Homo sapiens, UniProt P06239); test: Inhibition of a panel of kinases, in vitro HotSpot kinase assay: LCK; settings: D-compounds panel data; 1 μM ATP; read-out: IC50 LCK
[2] = target: T1, BTK-WT (Homo sapiens, UniProt Q06187); test: Btk in vitro inhibitory activity (one of Method A TR-FRET, Method B electrophoretic mobility shift, Method C radiometric filter binding); settings: D-compounds panel data; read-out: IC50 BTK-WT
T1 construct: purified from insect cells as a full-length construct containing an N-terminal 6X-His tag; His6 (N); made in house; host or cells: insect cells (baculovirus Sf21 in Method B)
T1 sequence (Q06187 whole entry): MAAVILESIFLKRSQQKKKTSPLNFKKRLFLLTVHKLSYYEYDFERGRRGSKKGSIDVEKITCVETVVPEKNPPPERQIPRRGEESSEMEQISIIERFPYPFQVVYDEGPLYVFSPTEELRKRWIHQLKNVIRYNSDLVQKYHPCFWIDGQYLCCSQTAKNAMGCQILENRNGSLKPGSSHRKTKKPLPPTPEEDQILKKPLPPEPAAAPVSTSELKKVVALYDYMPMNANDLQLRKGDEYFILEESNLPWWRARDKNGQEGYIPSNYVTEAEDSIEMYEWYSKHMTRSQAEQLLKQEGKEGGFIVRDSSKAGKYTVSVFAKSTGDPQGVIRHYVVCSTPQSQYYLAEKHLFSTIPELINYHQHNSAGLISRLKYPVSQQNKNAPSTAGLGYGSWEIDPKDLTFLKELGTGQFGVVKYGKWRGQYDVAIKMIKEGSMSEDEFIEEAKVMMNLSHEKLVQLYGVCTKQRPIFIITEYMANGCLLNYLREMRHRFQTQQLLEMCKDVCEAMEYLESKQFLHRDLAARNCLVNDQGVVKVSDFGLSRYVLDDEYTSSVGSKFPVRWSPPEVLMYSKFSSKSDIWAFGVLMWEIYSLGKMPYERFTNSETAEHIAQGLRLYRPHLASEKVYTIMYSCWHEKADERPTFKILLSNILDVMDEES

[3] = target: T2, ITK (Homo sapiens, UniProt Q08881); test: Inhibition of a panel of kinases, in vitro HotSpot kinase assay: ITK; settings: D-compounds panel data; 1 μM ATP
T2 sequence (Q08881 1-620): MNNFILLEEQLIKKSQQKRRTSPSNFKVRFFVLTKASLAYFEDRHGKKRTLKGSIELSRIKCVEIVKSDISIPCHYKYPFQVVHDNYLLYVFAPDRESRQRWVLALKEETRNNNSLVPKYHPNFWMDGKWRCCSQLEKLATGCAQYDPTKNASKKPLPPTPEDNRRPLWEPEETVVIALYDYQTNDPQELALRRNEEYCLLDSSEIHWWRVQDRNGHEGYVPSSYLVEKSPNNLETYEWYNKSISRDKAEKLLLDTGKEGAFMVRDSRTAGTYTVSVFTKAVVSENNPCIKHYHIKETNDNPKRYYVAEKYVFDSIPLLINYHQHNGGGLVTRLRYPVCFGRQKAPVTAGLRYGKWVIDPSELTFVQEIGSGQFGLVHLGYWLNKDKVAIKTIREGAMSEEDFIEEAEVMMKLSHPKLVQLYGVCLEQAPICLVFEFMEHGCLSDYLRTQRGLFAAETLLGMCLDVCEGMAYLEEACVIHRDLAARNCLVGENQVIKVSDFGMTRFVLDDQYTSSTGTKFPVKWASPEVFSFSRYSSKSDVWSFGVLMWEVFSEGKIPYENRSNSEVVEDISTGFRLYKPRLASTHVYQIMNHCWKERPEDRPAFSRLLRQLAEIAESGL
Procedure: (§1) The degree of inhibition of a panel of kinases is determined using the in vitro HotSpot kinase assay (purified enzymes, ^33P-ATP, an appropriate substrate and 1 μM ATP).

[4] = target: T3, TEC (Homo sapiens, UniProt P42680); test: Inhibition of a panel of kinases, in vitro HotSpot kinase assay: TEC; settings: D-compounds panel data; 1 μM ATP
T3 sequence (P42680 1-631): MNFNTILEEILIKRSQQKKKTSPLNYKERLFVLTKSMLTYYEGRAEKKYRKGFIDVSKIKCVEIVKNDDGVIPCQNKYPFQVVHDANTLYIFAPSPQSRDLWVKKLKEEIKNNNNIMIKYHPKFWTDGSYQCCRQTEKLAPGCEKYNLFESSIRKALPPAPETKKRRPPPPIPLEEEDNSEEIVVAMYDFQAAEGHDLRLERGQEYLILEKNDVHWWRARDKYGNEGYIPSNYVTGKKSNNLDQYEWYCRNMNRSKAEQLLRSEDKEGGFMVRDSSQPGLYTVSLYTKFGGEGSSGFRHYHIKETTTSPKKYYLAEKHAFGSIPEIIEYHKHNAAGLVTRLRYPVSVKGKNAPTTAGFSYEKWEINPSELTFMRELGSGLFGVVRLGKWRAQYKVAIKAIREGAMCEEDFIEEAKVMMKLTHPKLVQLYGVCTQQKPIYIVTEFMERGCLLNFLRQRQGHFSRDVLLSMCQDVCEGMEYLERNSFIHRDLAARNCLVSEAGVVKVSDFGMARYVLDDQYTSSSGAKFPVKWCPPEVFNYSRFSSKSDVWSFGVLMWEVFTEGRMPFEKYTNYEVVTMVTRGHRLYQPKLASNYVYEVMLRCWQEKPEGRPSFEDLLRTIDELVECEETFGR
Procedure: as §1

Sequence of LCK (P06239 whole entry): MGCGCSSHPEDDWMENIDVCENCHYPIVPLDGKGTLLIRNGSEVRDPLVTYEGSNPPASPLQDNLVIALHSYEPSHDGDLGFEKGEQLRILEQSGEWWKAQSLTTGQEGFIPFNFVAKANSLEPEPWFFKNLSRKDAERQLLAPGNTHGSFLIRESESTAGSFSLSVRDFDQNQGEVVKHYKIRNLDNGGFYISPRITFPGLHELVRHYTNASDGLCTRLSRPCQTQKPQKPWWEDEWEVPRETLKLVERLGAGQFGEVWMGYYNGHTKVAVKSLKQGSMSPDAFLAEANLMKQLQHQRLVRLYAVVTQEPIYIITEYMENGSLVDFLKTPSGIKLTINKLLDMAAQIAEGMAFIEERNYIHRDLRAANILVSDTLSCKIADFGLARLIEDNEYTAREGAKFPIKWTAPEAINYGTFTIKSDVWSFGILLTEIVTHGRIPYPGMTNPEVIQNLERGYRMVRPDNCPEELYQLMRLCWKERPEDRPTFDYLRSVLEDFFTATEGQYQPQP

SMILES	pIC50 [1]	pIC50 [2]	pIC50 [3]	pIC50 [4]
C[C@@H]1[C@H](NC(=O)c2ccc(C(C)(C)O)cc2)CCCN1c1cnc(C(N)=O)c(Nc2cnn(C)c2)n1 [Example D-194, 5-[(2R,3R)-3-[4-(2-hydroxypropan-2-yl)benzamido]-2-methylpiperidin-1-yl]-3-[(1-methyl-1H-pyrazol-4-yl)amino]pyrazine-2-carboxamide]	6.00 to 7.00	≥ 8.00	6.00 to 7.00	≥ 8.00
C[C@@H]1[C@H](NC(=O)c2ccc(N(C)C)cc2)CCCN1c1cnc(C(N)=O)c(Nc2ccc(N3CCN(C)CC3)cc2)n1 [Example D-196, 5-[(2R,3R)-3-[4-(dimethylamino)benzamido]-2-methylpiperidin-1-yl]-3-{[4-(4-methylpiperazin-1-yl)phenyl]amino}pyrazine-2-carboxamide]	7.00 to 8.00	≥ 8.00	7.00 to 8.00	7.00 to 8.00
CC(C)c1ccc(C(=O)N[C@@H]2CCCN(c3cnc(C(N)=O)c(Nc4cnn(C)c4)n3)[C@@H]2C)cc1 [Example D-197, 3-[(1-methyl-1H-pyrazol-4-yl)amino]-5-[(2R,3R)-2-methyl-3-[4-(propan-2-yl)benzamido]piperidin-1-yl]pyrazine-2-carboxamide]	6.00 to 7.00	≥ 8.00	6.00 to 7.00	7.00 to 8.00
C[C@@H]1[C@H](NC(=O)c2ccc(C3CC3)nc2)CCCN1c1cnc(C(N)=O)c(Nc2ccc(N3CCN(C)CC3)cc2)n1 [Example D-203, 5-[(2R,3R)-3-(6-cyclopropylpyridine-3-amido)-2-methylpiperidin-1-yl]-3-{[4-(4-methylpiperazin-1-yl)phenyl]amino}pyrazine-2-carboxamide]	7.00 to 8.00	≥ 8.00	7.00 to 8.00	≥ 8.00
C[C@@H]1[C@H](NC(=O)c2ccc(C(C)(C)C)cn2)CCCN1c1cnc(C(N)=O)c(Nc2cnn(C)c2)n1 [Example D-208, 5-[(2R,3R)-3-(5-tert-butylpyridine-2-amido)-2-methylpiperidin-1-yl]-3-[(1-methyl-1H-pyrazol-4-yl)amino]pyrazine-2-carboxamide]	6.00 to 7.00	≥ 8.00	6.00 to 7.00	7.00 to 8.00
Cc1ncc(Nc2nc(N3CCC[C@@H](NC(=O)c4ccc(C5CC5)cc4)[C@H]3C)cnc2C(N)=O)s1 [Example D-210, 5-[(2R,3R)-3-(4-cyclopropylbenzamido)-2-methylpiperidin-1-yl]-3-[(2-methyl-1,3-thiazol-5-yl)amino]pyrazine-2-carboxamide]	6.00 to 7.00	≥ 8.00	6.00 to 7.00	≥ 8.00
C[C@@H]1[C@H](NC(=O)c2ccc(C3CC3)cc2)CCCN1c1cnc(C(N)=O)c(Nc2ccc(OC3CCN4CCCC4C3)cc2)n1 (stereo partly drawn) [Example D-211, 5-[(2R,3R)-3-(4-cyclopropylbenzamido)-2-methylpiperidin-1-yl]-3-{[4-(octahydroindolizin-7-yloxy)phenyl]amino}pyrazine-2-carboxamide]	7.00 to 8.00	≥ 8.00	6.00 to 7.00	≥ 8.00
C[C@@H]1[C@H](NC(=O)c2ccc(C3(O)CCCC3)cc2)CCCN1c1cnc(C(N)=O)c(Nc2cnn(C)c2)n1 [Example D-212, 5-[(2R,3R)-3-[4-(1-hydroxycyclopentyl)benzamido]-2-methylpiperidin-1-yl]-3-[(1-methyl-1H-pyrazol-4-yl)amino]pyrazine-2-carboxamide]	6.00 to 7.00	≥ 8.00	6.00 to 7.00	≥ 8.00

Other lines, results leading:

pIC50 [1]	pIC50 [2]	pIC50 [3]	pIC50 [4]	SMILES
< 5.00	6.00 to 7.00	< 5.00	5.00 to 6.00	Cn1cc(Nc2nc(N3C[C@@H](NC(=O)c4ccc(C5CC5)cc4)CC(F)(F)C3)cnc2C(N)=O)cn1 [Example D-189, 5-[(5S)-5-(4-cyclopropylbenzamido)-3,3-difluoropiperidin-1-yl]-3-[(1-methyl-1H-pyrazol-4-yl)amino]pyrazine-2-carboxamide]
6.00 to 7.00	7.00 to 8.00	5.00 to 6.00	6.00 to 7.00	Cn1cc(Nc2nc(N3CCC[C@@H](NC(=O)c4ccc(C5CC5)cc4)C3)cnc2C(N)=O)cn1 [Example D-191, 5-[(3R)-3-(4-cyclopropylbenzamido)piperidin-1-yl]-3-[(1-methyl-1H-pyrazol-4-yl)amino]pyrazine-2-carboxamide]
< 5.00	5.00 to 6.00	5.00 to 6.00	5.00 to 6.00	Cn1cc(Nc2nc(N3CCC(F)(F)[C@H](NC(=O)c4ccc(C5CC5)cc4)C3)cnc2C(N)=O)cn1 [Example D-192, 5-[(3R)-3-(4-cyclopropylbenzamido)-4,4-difluoropiperidin-1-yl]-3-[(1-methyl-1H-pyrazol-4-yl)amino]pyrazine-2-carboxamide]
< 5.00	7.00 to 8.00	< 5.00	6.00 to 7.00	Cn1cc(Nc2nc(N3CCC(F)(F)[C@@H](NC(=O)c4ccc(C5CC5)cc4)C3)cnc2C(N)=O)cn1 [Example D-193, 5-[(3S)-3-(4-cyclopropylbenzamido)-4,4-difluoropiperidin-1-yl]-3-[(1-methylpyrazol-4-yl)amino]pyrazine-2-carboxamide]
6.00 to 7.00	≥ 8.00	6.00 to 7.00	7.00 to 8.00	Cn1cc(Nc2nc(N3CCC[C@@H](NC(=O)c4ccc(C5CC5)cc4)C3)nnc2C(N)=O)cn1 [Example D-195, 3-[(3R)-3-(4-cyclopropylbenzamido)piperidin-1-yl]-5-[(1-methyl-1H-pyrazol-4-yl)amino]-1,2,4-triazine-6-carboxamide]
7.00 to 8.00	≥ 8.00	6.00 to 7.00	7.00 to 8.00	C[C@@H]1[C@H](NC(=O)c2ncc(C3CC3)cn2)CCCN1c1cnc(C(N)=O)c(Nc2cnn(C)c2)n1 [Example D-198, 5-[(2R,3R)-3-(5-cyclopropylpyrimidine-2-amido)-2-methylpiperidin-1-yl]-3-[(1-methyl-1H-pyrazol-4-yl)amino]pyrazine-2-carboxamide]
7.00 to 8.00	≥ 8.00	6.00 to 7.00	≥ 8.00	C[C@@H]1[C@H](NC(=O)c2cnc(C3CC3)cn2)CCCN1c1cnc(C(N)=O)c(Nc2cnn(C)c2)n1 [Example D-205, 5-[(2R,3R)-3-(5-cyclopropylpyrazine-2-amido)-2-methylpiperidin-1-yl]-3-[(1-methyl-1H-pyrazol-4-yl)amino]pyrazine-2-carboxamide]
7.00 to 8.00	≥ 8.00	6.00 to 7.00	≥ 8.00	Cn1cc(Nc2nc(N3CCC[C@@H](n4ccc5cc(C6CC6)ccc5c4=O)C3)nnc2C(N)=O)cn1 [Example D-206, 3-[(3R)-3-(6-cyclopropyl-1-oxo-1,2-dihydroisoquinolin-2-yl)piperidin-1-yl]-5-[(1-methyl-1H-pyrazol-4-yl)amino]-1,2,4-triazine-6-carboxamide]
6.00 to 7.00	≥ 8.00	5.00 to 6.00	6.00 to 7.00	C[C@@H]1[C@H](NC(=O)c2ccc(C3CC3)cc2)CCCN1c1cnc(C(N)=O)c(Nc2cnn(C)c2)c1 [Example D-207, 5-[(2R,3R)-3-(4-cyclopropylbenzamido)-2-methylpiperidin-1-yl]-3-[(1-methyl-1H-pyrazol-4-yl)amino]pyridine-2-carboxamide]
6.00 to 7.00	7.00 to 8.00	5.00 to 6.00	7.00 to 8.00	CN1CCN([C@@H]2CCCN(c3cnc(C(N)=O)c(Nc4cnn(C)c4)n3)C2)C1=O [Example D-209, 3-[(1-methyl-1H-pyrazol-4-yl)amino]-5-[(3R)-3-(3-methyl-2-oxoimidazolidin-1-yl)piperidin-1-yl]pyrazine-2-carboxamide]

Source: US20210070748A1, “INHIBITORS OF BRUTONS TYROSINE KINASE” (Pharmacyclics LLC, priority 2015, published 2021)
